{
  "source": "patent US20260021061A1",
  "about": "“ARIADNE AND ANALOGS FOR THE TREATMENT OF NEUROLOGICAL AND NEUROMUSCLAR DISORDERS” (priority 2022, published 2026)",
  "key": {"5-HT6 receptor": {"target": "5-HT6 receptor (Homo sapiens, UniProt P50406)", "sequence (P50406 whole entry)": "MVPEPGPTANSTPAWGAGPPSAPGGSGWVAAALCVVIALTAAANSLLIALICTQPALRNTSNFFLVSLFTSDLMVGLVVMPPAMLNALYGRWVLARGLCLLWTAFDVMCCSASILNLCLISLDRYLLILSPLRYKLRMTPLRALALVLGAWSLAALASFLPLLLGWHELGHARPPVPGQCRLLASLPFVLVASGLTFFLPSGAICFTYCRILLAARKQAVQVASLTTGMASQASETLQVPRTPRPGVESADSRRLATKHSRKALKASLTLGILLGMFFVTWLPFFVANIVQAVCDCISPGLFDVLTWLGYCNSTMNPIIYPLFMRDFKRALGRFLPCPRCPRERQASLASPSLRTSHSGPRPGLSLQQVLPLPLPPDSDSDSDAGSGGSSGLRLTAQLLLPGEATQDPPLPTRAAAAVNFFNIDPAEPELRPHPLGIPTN", "assay": "5-HTome G protein activation BRET assay", "conditions": "for agonist activity: 5-HTome screen", "quoted_text": "(§3) All BRET assays were conducted using BRET2 in HEK293T cells (ATCC CRL-11268; mycoplasma-free), which were subcultured in high-glucose DMEM (VWR) supplemented with 10% FBS (Life Technologies).\n(§4) Constructs in G protein-dissociation BRET assays were derived from the codon-optimized Tango pcDNA3.1 library (Addgene) with V2tail/TEV/tTA encoding regions deleted to yield “de-Tango” constructs. […] All Gα-Rluc8, Beta, and GFP2-γ constructs were derived from the TRUPATH pcDNA5/FRT/TO library (Addgene).\n(§5) Approximately 48 hours before assays, cells were transfected using a reverse transfection method and plated in 1% dFBS at an approximate density of 15,000 cells per well into poly-L-lysine-coated 384-well white assay plates (Grenier Bio-One). For G protein-dissociation assays, cells were transfected in a 1:1:1:1 ratio of receptor: Gα-Rluc8: Beta: GFP2-γ constructs. […] All transfections were prepared in Opti-MEM (Invitrogen) and used a 3:1 ratio of TransIT-2020 (Mirus) uL:ug total DNA.\n(§6) On the day of the assay, plates were decanted and 20 uL of drug buffer per well (1×HBSS, 20 mM HEPES, pH 7.4) was added using a Multidrop (ThermoFisher Scientific), and plates were allowed to equilibrate at 37° C. in a humidified incubator before receiving drug stimulation. Drug dilutions of all compounds were performed in McCorvy buffer (1×HBSS, 20 mM HEPES, pH 7.4, supplemented with 0.3% BSA fatty acid free (GoldBio), and 0.03% ascorbic acid). […] Before reading, addition of coelenterazine 400a (5 uM final concentration; Nanolight Technology) was performed by the [sequence]. Immediately after, plates were read at 400 nm Rluc and fluorescent GFP2 emission at 510 nm for BRET2 at 0.8 second per well using a PheraStarFSX (BMB Lab Tech).\n(§7) The BRET ratios of 510/400 luminescence were calculated per well and were plotted as a function of drug concentration using Graphpad Prism 5 or 9 (Graphpad Software Inc., San Diego, CA). Data were normalized to % positive control stimulation and analyzed using nonlinear regression “log(agonist) vs. response” to yield Emax and EC50 parameter estimates."}, "5-HT2C receptor [1]": {"target": "T1, 5-HT2C receptor (Homo sapiens, UniProt P28335)", "T1 sequence (P28335 33-458)": "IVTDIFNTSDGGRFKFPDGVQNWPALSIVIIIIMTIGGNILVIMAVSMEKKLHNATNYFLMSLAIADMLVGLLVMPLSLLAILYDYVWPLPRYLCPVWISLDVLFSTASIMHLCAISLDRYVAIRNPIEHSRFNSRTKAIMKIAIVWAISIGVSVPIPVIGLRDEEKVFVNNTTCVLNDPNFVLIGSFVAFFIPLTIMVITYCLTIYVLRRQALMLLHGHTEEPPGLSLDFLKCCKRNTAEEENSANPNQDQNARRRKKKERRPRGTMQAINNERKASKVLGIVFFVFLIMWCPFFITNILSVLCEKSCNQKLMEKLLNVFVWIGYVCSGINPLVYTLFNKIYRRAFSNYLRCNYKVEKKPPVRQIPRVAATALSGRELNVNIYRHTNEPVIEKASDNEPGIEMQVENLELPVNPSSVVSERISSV", "assay": "G protein (Gq) dissociation BRET assay", "conditions": "for Emax: read-out: Emax, agonist activity", "quoted_text": "as §3, §4, §5\nOn the day of the assay, plates were decanted and 20 uL of drug buffer per well (1×HBSS, 20 mM HEPES, pH 7.4) was added using a Multidrop (ThermoFisher Scientific), and plates were allowed to equilibrate at 37° C. in a humidified incubator before receiving drug stimulation. Drug dilutions of all compounds were performed in McCorvy buffer (1×HBSS, 20 mM HEPES, pH 7.4, supplemented with 0.3% BSA fatty acid free (GoldBio), and 0.03% ascorbic acid). […] Next, plates were incubated at 37° C. in a humidified incubator for 60 minutes or specified time point. Before reading, addition of coelenterazine 400a (5 uM final concentration; Nanolight Technology) was performed by the [sequence]. Immediately after, plates were read at 400 nm Rluc and fluorescent GFP2 emission at 510 nm for BRET2 at 0.8 second per well using a PheraStarFSX (BMB Lab Tech).\nas §7"}, "5-HT2C receptor [2]": {"target": "T1, 5-HT2C receptor", "assay": "Calcium flux assay", "format": "cell-based", "conditions": "read-out: Emax relative to 5-HT, calcium flux", "quoted_text": "Therefore, an orthogonal assay measuring calcium flux was also performed for the 5-HT2 receptors (Klein et al., 2020)."}, "5-HT1E receptor": {"target": "5-HT1E receptor (Homo sapiens, UniProt P28566)", "sequence (P28566 whole entry)": "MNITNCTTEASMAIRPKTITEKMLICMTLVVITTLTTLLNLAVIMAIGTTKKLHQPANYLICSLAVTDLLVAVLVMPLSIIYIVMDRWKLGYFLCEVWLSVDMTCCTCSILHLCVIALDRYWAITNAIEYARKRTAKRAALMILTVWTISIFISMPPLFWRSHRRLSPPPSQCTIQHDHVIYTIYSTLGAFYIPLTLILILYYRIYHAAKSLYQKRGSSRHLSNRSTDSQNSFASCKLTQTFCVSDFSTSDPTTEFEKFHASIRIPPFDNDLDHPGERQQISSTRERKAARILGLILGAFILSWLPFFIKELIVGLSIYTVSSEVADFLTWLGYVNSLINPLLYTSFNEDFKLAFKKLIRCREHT", "assay": "5-HTome G protein activation BRET assay", "quoted_text": "as §3, §4, §5, §6, §7"}, "[3]": {"target": "T2, Potassium Channel hERG, [3H]Dofetilide (Homo sapiens, UniProt Q12809)", "T2 construct": "purchased Eurofins-Panlabs (contract screen SafetyScreen44) assay ID 265910", "assay": "SafetyScreen44 265910", "format": "binding", "conditions": "10 μM, recombinant", "method": "(§1) A broad screen of 44 molecular targets (SafetyScreen44, Eurofins-Panlabs) for Ariadne were performed, which includes G protein-coupled receptors, steroid nuclear receptors, ion channels, neurotransmitter transporters, and metabolic and signaling enzymes. Only two molecular targets, 5-HT2A and 5-HT2B receptors, emerged above the positive hit threshold, defined as 50% displacement of standard radioligands by 10 uM concentration of Ariadne (FIG. 1b, and Table 1).\n(§2) For species, “H”=human, “R”=rat. Test compound screened at all targets at concentration of 10 μM."}, "humans": {"system": "humans", "conditions": "in vivo; cited from earlier work"}, "hDAT": {"target": "hDAT (Homo sapiens, UniProt Q01959)", "sequence (Q01959 whole entry)": "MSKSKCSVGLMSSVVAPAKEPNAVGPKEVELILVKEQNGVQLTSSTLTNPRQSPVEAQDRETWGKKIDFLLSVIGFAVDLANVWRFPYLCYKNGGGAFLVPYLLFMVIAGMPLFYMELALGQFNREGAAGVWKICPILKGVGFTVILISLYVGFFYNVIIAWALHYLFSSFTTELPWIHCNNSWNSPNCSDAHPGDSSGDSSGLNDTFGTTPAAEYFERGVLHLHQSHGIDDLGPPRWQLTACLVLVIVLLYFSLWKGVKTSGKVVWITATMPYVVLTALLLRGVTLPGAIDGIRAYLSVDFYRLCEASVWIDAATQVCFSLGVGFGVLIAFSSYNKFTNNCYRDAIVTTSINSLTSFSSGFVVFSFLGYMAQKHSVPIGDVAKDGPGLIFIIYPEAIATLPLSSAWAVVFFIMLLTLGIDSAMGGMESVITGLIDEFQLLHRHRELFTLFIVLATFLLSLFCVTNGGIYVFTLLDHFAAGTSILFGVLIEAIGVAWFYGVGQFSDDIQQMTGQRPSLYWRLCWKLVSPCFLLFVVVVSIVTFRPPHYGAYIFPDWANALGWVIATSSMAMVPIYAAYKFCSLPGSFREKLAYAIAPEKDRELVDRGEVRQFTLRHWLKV", "assay": "DAT fluorescence uptake inhibition", "format": "cell-based"}, "[4]": {"target": "T3, Serotonin (5-Hydroxytryptamine) 5-HT1B (Homo sapiens, UniProt P28222)", "T3 construct": "purchased Eurofins-Panlabs (contract screen SafetyScreen44) assay ID 271230", "assay": "SafetyScreen44 271230", "format": "binding", "conditions": "10 μM; [3H]GR125743; recombinant", "method": "as §1, §2"}, "5-HT2B": {"target": "5-HT2B (Homo sapiens, UniProt P41595)", "sequence (P41595 whole entry)": "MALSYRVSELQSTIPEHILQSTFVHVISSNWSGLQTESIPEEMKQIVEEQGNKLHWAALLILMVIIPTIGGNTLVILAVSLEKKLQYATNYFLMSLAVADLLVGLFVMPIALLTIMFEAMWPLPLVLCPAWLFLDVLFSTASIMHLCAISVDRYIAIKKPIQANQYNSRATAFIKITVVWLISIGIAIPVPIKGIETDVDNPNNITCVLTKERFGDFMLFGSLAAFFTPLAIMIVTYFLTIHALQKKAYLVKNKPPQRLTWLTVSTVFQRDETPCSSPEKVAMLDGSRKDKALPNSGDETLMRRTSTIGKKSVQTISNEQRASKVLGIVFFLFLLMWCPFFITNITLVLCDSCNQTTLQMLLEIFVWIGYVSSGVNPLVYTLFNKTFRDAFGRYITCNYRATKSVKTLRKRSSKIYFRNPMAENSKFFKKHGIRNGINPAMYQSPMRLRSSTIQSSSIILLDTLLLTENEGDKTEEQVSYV", "assay": "IP1 agonism (IP1 formation assay), Cerep, Eurofins", "format": "cell-based", "set-up": "purchased Cerep, Eurofins (contract assay)", "conditions": "duplicate averages only", "description": "FIGS. 8A-B Comparison of 5-HT2A (a) and 5-HT2B (b) receptor in IP1 formation assay for selected compounds, performed at Cerep, Eurofins.\nIP1 agonism summary for selected compounds (duplicate averages only), performed at Cerep, Eurofins."}, "[5]": {"target": "T4, Nicotinic Acetylcholine alpha4beta2, Cytisine (Homo sapiens, UniProt P17787+P43681)", "T4 construct": "purchased Eurofins-Panlabs (contract screen SafetyScreen44) assay ID 299031", "T4 sequence (P43681 29-627 limits assumed)": "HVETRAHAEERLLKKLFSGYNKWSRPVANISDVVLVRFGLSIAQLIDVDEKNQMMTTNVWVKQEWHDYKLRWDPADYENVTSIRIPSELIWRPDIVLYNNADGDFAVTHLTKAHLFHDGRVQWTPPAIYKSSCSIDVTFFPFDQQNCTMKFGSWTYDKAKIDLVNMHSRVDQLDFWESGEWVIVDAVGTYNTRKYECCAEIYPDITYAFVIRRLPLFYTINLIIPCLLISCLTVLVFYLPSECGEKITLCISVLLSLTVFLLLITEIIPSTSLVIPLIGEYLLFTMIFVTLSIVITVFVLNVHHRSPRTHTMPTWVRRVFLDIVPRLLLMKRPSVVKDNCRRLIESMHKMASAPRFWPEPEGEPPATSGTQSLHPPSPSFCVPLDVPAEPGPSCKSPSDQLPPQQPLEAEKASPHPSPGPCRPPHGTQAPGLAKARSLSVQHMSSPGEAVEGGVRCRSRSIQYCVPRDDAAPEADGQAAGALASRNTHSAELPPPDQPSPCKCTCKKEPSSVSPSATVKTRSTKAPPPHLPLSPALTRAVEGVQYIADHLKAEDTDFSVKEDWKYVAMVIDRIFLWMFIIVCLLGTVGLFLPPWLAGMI", "T4 sequence (P17787 26-502)": "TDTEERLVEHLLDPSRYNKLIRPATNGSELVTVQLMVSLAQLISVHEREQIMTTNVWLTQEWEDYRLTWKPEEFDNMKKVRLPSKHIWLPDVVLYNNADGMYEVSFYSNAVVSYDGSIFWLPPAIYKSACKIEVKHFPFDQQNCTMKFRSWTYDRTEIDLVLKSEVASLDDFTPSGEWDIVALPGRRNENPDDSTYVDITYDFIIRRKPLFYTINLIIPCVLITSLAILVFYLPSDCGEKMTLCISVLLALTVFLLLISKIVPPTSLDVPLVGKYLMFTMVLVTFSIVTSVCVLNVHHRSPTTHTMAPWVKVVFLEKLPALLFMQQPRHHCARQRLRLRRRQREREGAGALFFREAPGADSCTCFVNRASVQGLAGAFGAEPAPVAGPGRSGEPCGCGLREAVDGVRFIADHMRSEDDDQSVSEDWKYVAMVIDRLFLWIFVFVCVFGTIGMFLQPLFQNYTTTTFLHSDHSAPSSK", "assay": "SafetyScreen44 299031", "format": "binding", "conditions": "10 μM; [3H]Cytisine; recombinant", "method": "as §1, §2"}, "[6]": {"target": "T5, Cholecystokinin CCK1 (CCKA) (Homo sapiens, UniProt P32238)", "T5 construct": "Eurofins-Panlabs (contract screen) 218030", "T5 sequence (P32238 whole entry)": "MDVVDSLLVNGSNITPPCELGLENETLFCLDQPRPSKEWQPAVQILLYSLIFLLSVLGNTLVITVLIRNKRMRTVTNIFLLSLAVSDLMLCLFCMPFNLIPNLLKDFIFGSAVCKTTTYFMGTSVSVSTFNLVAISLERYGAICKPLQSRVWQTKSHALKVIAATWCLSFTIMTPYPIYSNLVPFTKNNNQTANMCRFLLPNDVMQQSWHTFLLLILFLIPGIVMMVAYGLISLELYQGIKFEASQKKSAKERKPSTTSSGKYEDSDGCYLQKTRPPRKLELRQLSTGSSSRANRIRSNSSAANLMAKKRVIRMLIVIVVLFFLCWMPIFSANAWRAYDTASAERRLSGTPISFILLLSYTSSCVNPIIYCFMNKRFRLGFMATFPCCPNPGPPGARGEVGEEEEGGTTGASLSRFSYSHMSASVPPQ", "assay": "SafetyScreen44 218030", "format": "binding", "conditions": "10 μM; [125I]CCK-8; recombinant", "method": "as §1, §2"}, "Opiate δ1 (OP1, DOP)": {"target": "T6, Opiate δ1 (OP1, DOP) (Homo sapiens, UniProt P41143)", "T6 construct": "purchased Eurofins-Panlabs (contract screen SafetyScreen44) assay ID 260130", "T6 sequence (P41143 whole entry)": "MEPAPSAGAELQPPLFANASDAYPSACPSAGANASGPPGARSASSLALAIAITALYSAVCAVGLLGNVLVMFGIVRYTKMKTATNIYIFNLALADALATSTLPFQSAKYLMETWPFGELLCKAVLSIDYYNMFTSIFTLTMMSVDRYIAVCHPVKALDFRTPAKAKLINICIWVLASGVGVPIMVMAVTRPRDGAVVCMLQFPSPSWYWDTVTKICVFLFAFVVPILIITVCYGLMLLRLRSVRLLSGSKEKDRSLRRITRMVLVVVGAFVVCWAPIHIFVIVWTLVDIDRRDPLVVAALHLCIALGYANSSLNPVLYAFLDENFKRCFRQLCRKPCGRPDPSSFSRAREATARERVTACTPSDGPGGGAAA", "assay": "SafetyScreen44 260130", "format": "binding", "conditions": "10 μM; [3H]Naltrindole; recombinant", "method": "as §1, §2"}, "Dopamine D1": {"target": "T7, Dopamine D1 (Homo sapiens, UniProt P21728)", "T7 construct": "Eurofins-Panlabs (contract screen) 219500", "assay": "SafetyScreen44 219500", "format": "binding", "conditions": "10 μM; [3H]SCH-23390; recombinant", "method": "as §1, §2"}, "Adrenergic β2": {"target": "T8, Adrenergic β2 (Homo sapiens, UniProt P07550)", "T8 construct": "Eurofins-Panlabs (contract screen) 204110", "T8 sequence (P07550 whole entry)": "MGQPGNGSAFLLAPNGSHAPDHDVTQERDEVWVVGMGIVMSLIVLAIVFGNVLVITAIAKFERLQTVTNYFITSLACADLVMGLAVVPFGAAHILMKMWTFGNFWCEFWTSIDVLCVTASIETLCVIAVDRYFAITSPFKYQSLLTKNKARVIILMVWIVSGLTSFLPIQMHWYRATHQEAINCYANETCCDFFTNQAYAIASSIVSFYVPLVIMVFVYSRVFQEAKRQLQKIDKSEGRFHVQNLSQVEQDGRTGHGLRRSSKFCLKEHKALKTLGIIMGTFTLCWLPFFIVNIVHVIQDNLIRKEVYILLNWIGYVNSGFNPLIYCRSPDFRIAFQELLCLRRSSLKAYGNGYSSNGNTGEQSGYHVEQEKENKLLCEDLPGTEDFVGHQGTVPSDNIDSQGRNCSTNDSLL", "assay": "SafetyScreen44 204110", "format": "binding", "conditions": "10 μM; [3H]CGP-12177; recombinant", "method": "as §1, §2"}, "Histamine H1": {"target": "T9, Histamine H1 (Homo sapiens, UniProt P35367)", "T9 construct": "purchased Eurofins-Panlabs (contract screen SafetyScreen44) assay ID 239610", "assay": "SafetyScreen44 239610", "format": "binding", "conditions": "10 μM; [3H]Pyrilamine; recombinant", "method": "as §1, §2"}, "Opiate μ (OP3, MOP)": {"target": "T10, Opiate μ (OP3, MOP) (Homo sapiens, UniProt P35372)", "T10 construct": "purchased Eurofins-Panlabs (contract screen SafetyScreen44) assay ID 260410", "T10 sequence (P35372 whole entry)": "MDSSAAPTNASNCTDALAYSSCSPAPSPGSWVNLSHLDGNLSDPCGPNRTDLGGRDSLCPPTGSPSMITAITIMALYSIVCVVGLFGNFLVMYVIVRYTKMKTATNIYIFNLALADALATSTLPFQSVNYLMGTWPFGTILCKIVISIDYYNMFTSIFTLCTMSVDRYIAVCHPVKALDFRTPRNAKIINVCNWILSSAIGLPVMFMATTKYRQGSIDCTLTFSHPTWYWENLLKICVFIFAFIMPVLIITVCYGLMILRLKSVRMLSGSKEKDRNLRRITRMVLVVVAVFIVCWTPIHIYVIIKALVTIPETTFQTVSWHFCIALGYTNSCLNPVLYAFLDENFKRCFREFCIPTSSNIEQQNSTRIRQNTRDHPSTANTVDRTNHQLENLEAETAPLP", "assay": "SafetyScreen44 260410", "format": "binding", "conditions": "10 μM; [3H]Diprenorphine; recombinant", "method": "as §1, §2"}, "rats": {"system": "rats", "conditions": "rat, in vivo; cited from earlier work"}, "cats": {"system": "cats", "conditions": "in comparison to (R)-DOM; cited from earlier work"}, "Vasopressin V1A": {"target": "T11, Vasopressin V1A (Homo sapiens, UniProt P37288)", "T11 construct": "purchased Eurofins-Panlabs (contract screen SafetyScreen44) assay ID 287530", "assay": "SafetyScreen44 287530", "format": "binding", "conditions": "10 μM; [125I]Phenylacetyl Tyr(Me)PheGlnAsnArgProArgTyr; recombinant", "method": "as §1, §2"}, "rat smooth muscle": {"system": "rat smooth muscle", "conditions": "compared to serotonin and (R)-DOM; cited from earlier work"}, "[7]": {"target": "T12, Protein Tyrosine Kinase, LCK (Homo sapiens, UniProt P06239)", "T12 construct": "Eurofins-Panlabs (contract screen) 176020", "assay": "SafetyScreen44 176020", "format": "biochemical", "conditions": "10 μM; Poly(Glu:Tyr); recombinant", "method": "as §1, §2"}, "[8]": {"conditions": "EC50, agonist activity, 5-HTome screen"}, "[9]": {"conditions": "EC50 (5-HT2B) (M), Table 7, IP1 agonism"}},
  "data": [
    {"smiles": "CC[C@@H](N)Cc1cc(OC)c(C)cc1OC", "note": "[(R)-Ariadne]", "values": [
      {"measurement": "agonist activity", "setting": "5-HT6 receptor", "result": "Little to no agonist activity"},
      {"measurement": "EC50", "setting": "5-HT2C receptor [1]; EC50, Gq dissociation, Gq dissociation BRET", "result": 0.249, "unit": "µM"},
      {"measurement": "EC50", "setting": "5-HT2C receptor [1]; [8]", "result": "< 1", "unit": "µM"},
      {"measurement": "Emax", "setting": "5-HT2C receptor [1]", "result": "> 70", "unit": "%"},
      {"measurement": "Emax", "setting": "5-HT2C receptor [2]", "result": 60, "unit": "%"},
      {"measurement": "EC50", "setting": "5-HT1E receptor", "result": "~0.2", "unit": "µM"},
      {"measurement": "Emax", "setting": "5-HT1E receptor", "result": "> 70", "unit": "%"}
    ]},
    {"smiles": "CCC(N)Cc1cc(OC)c(C)cc1OC", "note": "(racemic) [Compound 32, 1-(2,5-dimethoxy-4-methylphenyl)butan-2-amine]", "values": [
      {"measurement": "% Response", "setting": "[3]", "result": 18, "unit": "%"},
      {"measurement": "hallucinogenic effects in humans", "setting": "humans", "result": "lack the hallucinogenic effects"},
      {"measurement": "EC50", "setting": "5-HT6 receptor", "result": "> 10", "unit": "µM"},
      {"measurement": "agonist activity", "setting": "5-HT6 receptor", "result": "Little to no agonist activity"},
      {"measurement": "IC50", "setting": "hDAT", "result": "> 50", "unit": "µM"},
      {"measurement": "% Response", "setting": "[4]", "result": 12, "unit": "%"},
      {"measurement": "EC50", "setting": "5-HT2B; 5-HT2b (IP1 agonism), Table 2", "result": "> 3.2e-05", "unit": "M"},
      {"measurement": "EC50", "setting": "5-HT2B; [9]", "result": "1.7e-06", "unit": "M"},
      {"measurement": "% Response", "setting": "[5]", "result": "−31", "unit": "%"},
      {"measurement": "% Response", "setting": "[6]", "result": 3, "unit": "%"},
      {"measurement": "% Response", "setting": "Opiate δ1 (OP1, DOP)", "result": 4, "unit": "%"},
      {"measurement": "% Response", "setting": "Dopamine D1", "result": 7, "unit": "%"},
      {"measurement": "EC50", "setting": "5-HT2C receptor [1]; [8]", "result": "< 1", "unit": "µM"},
      {"measurement": "Emax", "setting": "5-HT2C receptor [1]", "result": "> 70", "unit": "%"},
      {"measurement": "selectivity of 5-HT2 over 5-HT1E and 5-HT1F receptors", "setting": "5-HT1E receptor; also 5-HT1F", "result": "0.5-1 log"},
      {"measurement": "% Response", "setting": "Adrenergic β2", "result": 22, "unit": "%"},
      {"measurement": "% Response", "setting": "Histamine H1", "result": 13, "unit": "%"},
      {"measurement": "% Response", "setting": "Opiate μ (OP3, MOP)", "result": "−11", "unit": "%"},
      {"measurement": "substitution for MDMA stimulus", "setting": "rats", "result": "full substitution"},
      {"measurement": "substitution in LSD trained animals", "setting": "rats", "result": "substituted responding"},
      {"measurement": "combined score of DOM-like behavioral features", "setting": "cats", "result": "low combined score"},
      {"measurement": "% Response", "setting": "Vasopressin V1A", "result": "−5", "unit": "%"},
      {"measurement": "serotonergic-like effect", "setting": "rat smooth muscle", "result": "weak serotonergic-like effect"},
      {"measurement": "% Response", "setting": "[7]", "result": 13, "unit": "%"}
    ]},
    {"smiles": "CCC(N)Cc1cc(OC)c(C(F)(F)F)cc1OC", "note": "(racemic) [Compound 29, 1-(2,5-dimethoxy-4-(trifluoromethyl)phenyl)butan-2-amine]", "values": [
      {"measurement": "EC50", "setting": "5-HT2B; 5-HT2b (IP1 agonism), Table 2", "result": "6.3e-07", "unit": "M"},
      {"measurement": "EC50", "setting": "5-HT2B; [9]", "result": "4e-07", "unit": "M"}
    ]}
  ]
}
